The source made the active and inactive calls.
How the values were obtained:
Assay type in all cases: functional
[1] = target: Serine/threonine-protein kinase pim-3 (Homo sapiens, UniProt Q86V86);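 further: value obtained as one member of a broad kinase panel profiling effort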
[2] = target: Serine/threonine-protein kinase pim-1 (Homo sapiens, UniProt P11309)
[3] = target: Serine/threonine-protein kinase Nek2 (Homo sapiens, UniProt P51955)
[4] = target: MAP kinase-interacting serine/threonine-protein kinase 2 (Homo sapiens, UniProt Q9HBH9)
[5] = target: Serine/threonine-protein kinase 3 (Homo sapiens, UniProt Q13188);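 further: measured as one member of a kinome-wide kinase panel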
[6] = target: Protein kinase C gamma type (Homo sapiens, UniProt P05129)
[7] = target: Mitogen-activated protein kinase 13 (Homo sapiens, UniProt O15264)
[8] = target: Vascular endothelial growth factor receptor 3 (Homo sapiens, UniProt P35916);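 further: value from a kinome-wide profiling panel, with FLT4 as the panel member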
[9] = target: Calcium/calmodulin-dependent protein kinase type II subunit alpha (Homo sapiens, UniProt Q9UQM7); assay: Navigating the Kinome. Panel member name: CAMK2A
[10] = target: Phosphorylase b kinase gamma catalytic chain, liver/testis isoform (Homo sapiens, UniProt P15735);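 further: PHKG2 measured as one member of a kinome-wide kinase panel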
[11] = target: Serine/threonine-protein kinase PLK1 (Homo sapiens, UniProt P53350);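 further: PLK1 measured as one member of a kinome-wide profiling panel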
[12] = target: Cyclin-dependent kinase 2 (Homo sapiens, UniProt P24941);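 further: CDK2 measured as one member of a broad kinome profiling panel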
[13] = target: RAC-alpha serine/threonine-protein kinase (Homo sapiens, UniProt P31749);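 further: AKT1 affinity measured as one member of a kinome-wide kinase profiling panel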
[14] = target: Casein kinase I isoform delta (Homo sapiens, UniProt P48730);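 further: measured as one member (CSNK1D) of a kinome panel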
[15] = target: Serine/threonine-protein kinase D3 (Homo sapiens, UniProt O94806);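 further: determined within a kinase panel screen, with PRKCN as the panel member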
[16] = target: Rho-associated protein kinase 1 (Homo sapiens, UniProt Q13464);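 further: measured within a broad kinome-wide panel profiling many kinases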
[17] = target: Serine/threonine-protein kinase TAO1 (Homo sapiens, UniProt Q7L7X3)
[18] = target: Dual specificity tyrosine-phosphorylation-regulated kinase 3 (Homo sapiens, UniProt O43781);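 further: measured as one member of a broad kinase panel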
Misshapen-like kinase 1 = Misshapen-like kinase 1 (Homo sapiens, UniProt Q8N4C8);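 further: kinome panel screen with MINK as the panel member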
[19] = target: MAP kinase-activated protein kinase 3 (Homo sapiens, UniProt Q16644);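 further: value comes from a kinome-wide profiling panel in which MAPKAPK3 is one of the panel members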
[20] = target: Ribosomal protein S6 kinase beta-1 (Homo sapiens, UniProt P23443);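 further: measured as one member of a kinome-wide profiling panel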
[21] = target: Homeodomain-interacting protein kinase 4 (Homo sapiens, UniProt Q8NE63)
[22] = target: Tyrosine-protein kinase SYK (Homo sapiens, UniProt P43405)
[23] = target: Serine/threonine-protein kinase N2 (Homo sapiens, UniProt Q16513)
SRSF protein kinase 1 = SRSF protein kinase 1 (Homo sapiens, UniProt Q96SB4);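 further: measured as one member of a kinome-wide kinase profiling panel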
[24] = target: Cyclin-dependent kinase 7 (Homo sapiens, UniProt P50613);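 further: value comes from a kinome-wide kinase profiling panel in which CDK7 is one member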
[25] = target: Glycogen synthase kinase-3 beta (Homo sapiens, UniProt P49841);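 further: value comes from a broad kinome profiling panel, with GSK3B as the panel member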
[26] = target: Protein kinase C iota type (Homo sapiens, UniProt P41743);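 further: measured within a kinome-wide kinase panel, PRKCI as panel member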
[27] = target: Serine/threonine-protein kinase DCLK1 (Homo sapiens, UniProt O15075);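 further: affinity for DCLK1 (listed as DCAMKL1) measured as one member of a kinome-wide kinase profiling panel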
[28] = target: Casein kinase II subunit alpha (Homo sapiens, UniProt P68400)
[29] = target: Mitogen-activated protein kinase 1 (Homo sapiens, UniProt P28482)
[30] = target: Protein kinase C zeta type (Homo sapiens, UniProt Q05513);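 further: measured as one member of a broad kinase profiling panel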
[31] = target: Serine/threonine-protein kinase BRSK1 (Homo sapiens, UniProt Q8TDC3);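 further: measured within a kinome-wide kinase panel, with the target listed as KIAA1811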
[32] = target: Serine/threonine-protein kinase 17A (Homo sapiens, UniProt Q9UEE5)
[33] = target: Mitogen-activated protein kinase kinase kinase 20 (Homo sapiens, UniProt Q9NYL2)
[34] = target: Casein kinase I isoform alpha (Homo sapiens, UniProt P48729)
[35] = target: MAP kinase-activated protein kinase 2 (Homo sapiens, UniProt P49137);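 further: measured as one member of a kinome-wide kinase panel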
[36] = target: cAMP-dependent protein kinase catalytic subunit alpha (Homo sapiens, UniProt P17612)
[37] = target: Calcium/calmodulin-dependent protein kinase type II subunit gamma (Homo sapiens, UniProt Q13555)
[38] = target: Tyrosine-protein kinase JAK3 (Homo sapiens, UniProt P52333)
Aurora kinase B = Aurora kinase B (Homo sapiens, UniProt Q96GD4)
[39] = target: Calcium/calmodulin-dependent protein kinase type II subunit delta (Homo sapiens, UniProt Q13557)
[40] = target: Lymphokine-activated killer T-cell-originated protein kinase (Homo sapiens, UniProt Q96KB5);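 further: value comes from a kinase panel screen in which TOPK was one of the panel members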

Sequence of Serine/threonine-protein kinase D3 (O94806 whole entry): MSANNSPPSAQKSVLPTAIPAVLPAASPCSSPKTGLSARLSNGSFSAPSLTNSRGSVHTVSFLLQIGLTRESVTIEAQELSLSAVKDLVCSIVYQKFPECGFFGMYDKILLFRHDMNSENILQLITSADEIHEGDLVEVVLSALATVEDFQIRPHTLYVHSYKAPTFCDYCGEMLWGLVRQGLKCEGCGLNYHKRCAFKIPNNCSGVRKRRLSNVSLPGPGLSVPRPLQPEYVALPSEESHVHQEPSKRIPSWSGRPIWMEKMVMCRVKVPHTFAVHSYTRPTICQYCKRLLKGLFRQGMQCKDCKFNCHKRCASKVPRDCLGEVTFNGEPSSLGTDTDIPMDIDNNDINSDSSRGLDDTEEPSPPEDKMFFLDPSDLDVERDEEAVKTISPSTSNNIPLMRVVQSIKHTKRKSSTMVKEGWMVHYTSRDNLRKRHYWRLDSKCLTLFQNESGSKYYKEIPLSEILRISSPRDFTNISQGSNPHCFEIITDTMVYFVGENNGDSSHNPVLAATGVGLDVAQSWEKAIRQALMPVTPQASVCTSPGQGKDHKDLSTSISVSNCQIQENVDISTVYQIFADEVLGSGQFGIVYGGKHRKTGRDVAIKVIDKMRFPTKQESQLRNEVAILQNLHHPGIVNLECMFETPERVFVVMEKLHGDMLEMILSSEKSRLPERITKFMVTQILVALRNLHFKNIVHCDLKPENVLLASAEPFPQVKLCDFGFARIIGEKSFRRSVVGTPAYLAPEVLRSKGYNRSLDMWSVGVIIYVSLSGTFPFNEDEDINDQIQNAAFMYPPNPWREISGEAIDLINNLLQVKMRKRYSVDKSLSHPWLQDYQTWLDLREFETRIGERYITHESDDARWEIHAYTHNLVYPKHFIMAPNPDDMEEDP
Sequence of Vascular endothelial growth factor receptor 3 (P35916 whole entry): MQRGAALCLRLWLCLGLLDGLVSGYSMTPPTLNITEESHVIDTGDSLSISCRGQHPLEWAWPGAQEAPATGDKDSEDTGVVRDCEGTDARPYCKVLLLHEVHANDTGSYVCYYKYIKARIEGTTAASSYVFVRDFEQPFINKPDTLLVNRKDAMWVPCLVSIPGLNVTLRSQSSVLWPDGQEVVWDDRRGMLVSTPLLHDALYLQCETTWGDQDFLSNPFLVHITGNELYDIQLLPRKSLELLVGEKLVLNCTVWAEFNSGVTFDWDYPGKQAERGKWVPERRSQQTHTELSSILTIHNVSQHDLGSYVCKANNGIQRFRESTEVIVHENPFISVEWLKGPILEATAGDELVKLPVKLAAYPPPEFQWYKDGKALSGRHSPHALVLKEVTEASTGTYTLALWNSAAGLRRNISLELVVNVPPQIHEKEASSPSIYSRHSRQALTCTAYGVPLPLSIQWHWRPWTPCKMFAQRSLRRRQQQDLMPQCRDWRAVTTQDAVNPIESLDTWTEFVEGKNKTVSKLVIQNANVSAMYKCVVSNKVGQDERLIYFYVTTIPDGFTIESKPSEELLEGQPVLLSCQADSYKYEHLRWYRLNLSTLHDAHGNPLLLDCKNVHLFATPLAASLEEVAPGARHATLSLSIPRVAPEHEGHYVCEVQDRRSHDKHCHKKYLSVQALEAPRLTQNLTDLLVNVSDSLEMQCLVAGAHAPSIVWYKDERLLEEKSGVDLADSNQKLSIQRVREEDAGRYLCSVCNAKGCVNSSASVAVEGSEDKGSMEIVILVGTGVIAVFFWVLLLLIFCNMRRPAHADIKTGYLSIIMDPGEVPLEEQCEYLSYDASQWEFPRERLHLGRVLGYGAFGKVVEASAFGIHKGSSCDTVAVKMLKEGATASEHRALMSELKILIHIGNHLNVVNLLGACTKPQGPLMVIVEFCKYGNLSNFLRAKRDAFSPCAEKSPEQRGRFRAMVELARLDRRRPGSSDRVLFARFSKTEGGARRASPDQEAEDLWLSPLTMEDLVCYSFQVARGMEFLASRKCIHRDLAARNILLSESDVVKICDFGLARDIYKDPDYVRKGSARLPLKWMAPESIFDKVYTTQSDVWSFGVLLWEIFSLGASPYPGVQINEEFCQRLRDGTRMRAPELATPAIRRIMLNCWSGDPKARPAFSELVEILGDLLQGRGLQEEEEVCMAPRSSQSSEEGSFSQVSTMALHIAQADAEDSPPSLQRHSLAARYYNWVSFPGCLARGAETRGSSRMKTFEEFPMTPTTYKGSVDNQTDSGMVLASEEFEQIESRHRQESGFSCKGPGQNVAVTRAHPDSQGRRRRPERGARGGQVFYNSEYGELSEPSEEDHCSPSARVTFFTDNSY
Sequence of Casein kinase I isoform alpha (P48729 whole entry, canonical isoform): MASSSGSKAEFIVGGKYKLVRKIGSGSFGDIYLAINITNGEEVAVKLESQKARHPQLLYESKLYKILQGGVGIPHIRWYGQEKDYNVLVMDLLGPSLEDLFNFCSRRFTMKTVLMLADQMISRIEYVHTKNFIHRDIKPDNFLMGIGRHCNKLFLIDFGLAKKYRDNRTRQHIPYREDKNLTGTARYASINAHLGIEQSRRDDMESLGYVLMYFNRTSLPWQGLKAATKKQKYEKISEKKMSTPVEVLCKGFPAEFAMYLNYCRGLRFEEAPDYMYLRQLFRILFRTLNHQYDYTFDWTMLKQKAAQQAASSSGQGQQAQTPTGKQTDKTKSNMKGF
Sequence of Calcium/calmodulin-dependent protein kinase type II subunit delta (Q13557 whole entry): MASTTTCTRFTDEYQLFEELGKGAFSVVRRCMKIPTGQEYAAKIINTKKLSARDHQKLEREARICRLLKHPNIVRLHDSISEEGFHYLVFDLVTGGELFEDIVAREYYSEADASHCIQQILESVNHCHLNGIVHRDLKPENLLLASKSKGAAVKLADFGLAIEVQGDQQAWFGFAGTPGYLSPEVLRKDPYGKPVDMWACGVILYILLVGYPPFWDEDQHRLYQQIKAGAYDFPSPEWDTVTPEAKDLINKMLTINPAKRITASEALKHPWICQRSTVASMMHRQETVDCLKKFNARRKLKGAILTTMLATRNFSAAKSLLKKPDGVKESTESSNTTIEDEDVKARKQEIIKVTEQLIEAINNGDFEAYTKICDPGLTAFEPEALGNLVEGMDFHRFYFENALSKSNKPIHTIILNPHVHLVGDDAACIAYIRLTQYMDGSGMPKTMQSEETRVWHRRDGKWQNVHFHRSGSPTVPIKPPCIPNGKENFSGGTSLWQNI
Sequence of Phosphorylase b kinase gamma catalytic chain, liver/testis isoform (P15735 whole entry, canonical isoform): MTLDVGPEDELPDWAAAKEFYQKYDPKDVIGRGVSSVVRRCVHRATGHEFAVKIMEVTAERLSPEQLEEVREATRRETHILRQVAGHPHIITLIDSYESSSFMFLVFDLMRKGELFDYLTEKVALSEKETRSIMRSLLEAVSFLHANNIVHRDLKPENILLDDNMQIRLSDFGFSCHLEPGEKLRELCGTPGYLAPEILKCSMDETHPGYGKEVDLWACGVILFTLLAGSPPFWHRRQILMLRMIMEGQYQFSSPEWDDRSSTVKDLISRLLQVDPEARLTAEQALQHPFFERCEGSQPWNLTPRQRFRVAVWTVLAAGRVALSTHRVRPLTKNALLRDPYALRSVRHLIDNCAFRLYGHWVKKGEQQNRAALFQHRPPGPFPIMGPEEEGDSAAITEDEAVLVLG
Sequence of Ribosomal protein S6 kinase beta-1 (P23443 whole entry): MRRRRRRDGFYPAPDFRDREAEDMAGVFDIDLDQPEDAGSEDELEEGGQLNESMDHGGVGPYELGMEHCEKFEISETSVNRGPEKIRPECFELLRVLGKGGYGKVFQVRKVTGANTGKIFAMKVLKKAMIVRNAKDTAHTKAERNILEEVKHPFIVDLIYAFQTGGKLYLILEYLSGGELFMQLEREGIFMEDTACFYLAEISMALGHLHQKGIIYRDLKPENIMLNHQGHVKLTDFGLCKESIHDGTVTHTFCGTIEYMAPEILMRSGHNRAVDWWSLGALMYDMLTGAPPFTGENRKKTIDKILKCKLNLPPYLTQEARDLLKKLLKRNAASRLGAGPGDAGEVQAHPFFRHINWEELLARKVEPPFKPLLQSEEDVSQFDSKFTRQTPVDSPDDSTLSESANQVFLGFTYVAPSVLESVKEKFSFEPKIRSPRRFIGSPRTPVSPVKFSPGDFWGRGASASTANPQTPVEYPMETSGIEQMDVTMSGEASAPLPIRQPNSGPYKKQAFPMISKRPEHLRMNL
Sequence of Casein kinase I isoform delta (P48730 whole entry, canonical isoform): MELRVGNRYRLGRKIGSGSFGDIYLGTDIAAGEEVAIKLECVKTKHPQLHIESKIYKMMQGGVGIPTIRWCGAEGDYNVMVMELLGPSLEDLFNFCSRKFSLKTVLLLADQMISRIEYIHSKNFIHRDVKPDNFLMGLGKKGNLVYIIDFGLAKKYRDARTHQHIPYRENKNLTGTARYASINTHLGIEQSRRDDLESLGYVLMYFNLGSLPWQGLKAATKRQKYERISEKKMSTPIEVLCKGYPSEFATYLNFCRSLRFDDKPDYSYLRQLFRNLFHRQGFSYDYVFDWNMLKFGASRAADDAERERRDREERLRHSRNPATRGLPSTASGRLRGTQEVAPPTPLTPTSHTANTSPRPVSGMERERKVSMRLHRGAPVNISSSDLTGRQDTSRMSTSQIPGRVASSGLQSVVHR

## NNc1cc(N2CCOCC2)nc(OCCc2ccccn2)n1
[1]
  Ki: > 7.94 µM (inactive)
[2]
  Ki: > 6.31 µM (inactive)
[3]
  Ki: > 10 µM (inactive)
[4]
  Ki: > 10 µM (inactive)
[5]
  Ki: > 7.94 µM (inactive)
[6]
  Ki: > 7.94 µM (inactive)
[7]
  Ki: > 7.94 µM (inactive)
[8]
  Ki: > 6.31 µM (inactive)
[9]
  Ki: > 7.94 µM (inactive)
[10]
  Ki: > 5.01 µM (inactive)
[11]
  Ki: > 7.94 µM (inactive)
[12]
  Ki: > 7.94 µM (inactive)
[13]
  Ki: > 7.94 µM (inactive)
[14]
  Ki: > 7.94 µM (inactive)
[15]
  Ki: > 6.31 µM (inactive)
[16]
  Ki: > 6.31 µM (inactive)
[17]
  Ki: > 5.01 µM (inactive)
[18]
  Ki: > 6.31 µM (inactive)
Misshapen-like kinase 1
  Ki: > 7.94 µM (inactive)
[19]
  Ki: > 10 µM (inactive)
[20]
  Ki: > 6.31 µM (inactive)
[21]
  Ki: > 7.94 µM (inactive)
[22]
  Ki: 0.398 µM (active)
[23]
  Ki: > 7.94 µM (inactive)
SRSF protein kinase 1
  Ki: > 7.94 µM (inactive)
[24]
  Ki: > 3.98 µM (inactive)
[25]
  Ki: > 5.01 µM (inactive)
[26]
  Ki: > 5.01 µM (inactive)
[27]
  Ki: > 10 µM (inactive)
[28]
  Ki: > 6.31 µM (inactive)
[29]
  Ki: > 7.94 µM (inactive)
[30]
  Ki: > 7.94 µM (inactive)
[31]
  Ki: 7.94 µM (active)
[32]
  Ki: > 3.98 µM (inactive)
[33]
  Ki: > 7.94 µM (inactive)
[34]
  Ki: > 5.01 µM (inactive)
[35]
  Ki: > 7.94 µM (inactive)
[36]
  Ki: > 3.98 µM (inactive)
[37]
  Ki: > 6.31 µM (inactive)
[38]
  Ki: > 5.01 µM (inactive)
Aurora kinase B
  Ki: > 6.31 µM (inactive)
[39]
  Ki: > 6.31 µM (inactive)
[40]
  Ki: > 10 µM (inactive)

Source: ChEMBL document CHEMBL1201862, “PubChem BioAssay data set” (2004)
